# Results from US10294243B2, “Bicyclic compounds as pesticides” (BAYER CROPSCIENCE AKTIENGESELLSCHAFT, priority 2014, dated 2019).
# Like-named read-outs stand apart in the source and are kept apart here.
# Columns and labels:
# Myzus persicae = Myzus persicae - spray test (Chinese cabbage leaf discs); type: in vivo; details: after 6 days; for pest or weed control at 500 g/ha: Myzus persicae, foliar, 144 h, read-out: efficacy (aphids killed)
# Method: Myzus persicae—Spray Test
# Solvent: 78 parts by weight of acetone • • 1.5 parts by weight of dimethylformamide
# Emulsifier: alkylaryl polyglycol ether
# To produce further test concentrations, the preparation is diluted with emulsifier-containing water.
# After 6 days, the efficacy in % is determined 100% means that all the aphids have been killed; 0% means that none of the aphids have been killed.
# [1] = log P by HPLC on reversed-phase C18 columns (OECD Guideline 117); method [a] acidic pH 2.7, method [b] neutral pH 7.8; type: physicochemical; details: for chromatographic logP: reversed-phase C18 HPLC column
# [2] = HPLC reversed-phase C18, method [a] acidic pH 2.7, read-out: logP[a]
# [3] = HPLC reversed-phase C18, method [b] neutral pH 7.8, read-out: logP[b]
# [4] = HPLC reversed-phase C18, method [a] acidic pH 2.7
# [5] = HPLC reversed-phase C18, method [b] neutral pH 7.8
smiles,measurement,setting,value
"CC(C)n1cnc2nc(-c3cccnc3)sc2c1=O [Compound 1, 6-Isopropyl-2-(pyridin-3-yl)[1,3]thiazolo[4,5-d]pyrimidin-7(6H)-one]",pest or weed control at 500 g/ha,Myzus persicae; application rate 500 g/ha,100%
same,chromatographic logP,[1]; [2],1.35
same,chromatographic logP,[1]; [3],1.43
"Cc1cc(F)c(-n2cnc3nc(-c4cccnc4)sc3c2=O)cc1SCC(=O)N(C)C [Compound 54, 2-({4-Fluoro-2-methyl-5-[7-oxo-2-(pyridin-3-yl)[1,3]thiazolo[4,5-d]pyrimidin-6(7H)-yl]phenyl}sulphanyl)-N,N-dimethylacetamide]",pest or weed control at 500 g/ha,Myzus persicae; application rate 500 g/ha,100%
same,chromatographic logP,[1]; [2],1.9
same,chromatographic logP,[1]; [3],1.91
CC[S+]([O-])c1ccccc1-n1cnc2nc(-c3cccnc3)sc2c1=O (stereo not shown) [Compound 67],efficacy (aphids killed),Myzus persicae; application rate 500 g/ha,90%
same,logP[a],[1]; [4],1.28
same,logP[b],[1]; [5],1.29
"Cc1cc(C)c(-n2cnc3nc(-c4cccnc4)sc3c2=O)cc1SCC(F)(F)F [Compound 49, 6-{2,4-Dimethyl-5-[(2,2,2-trifluoroethyl)sulphanyl]phenyl}-2-(pyridin-3-yl)[1,3]thiazolo[4,5-d]pyrimidin-7(6H)-one]",pest or weed control at 500 g/ha,Myzus persicae; application rate 500 g/ha,100%
same,chromatographic logP,[1]; [2],3.04
same,chromatographic logP,[1]; [3],2.98
"Cc1cc(F)c(-n2nnc3nc(-c4cccnc4)sc3c2=O)cc1[S+]([O-])CC(F)(F)F (stereo not shown) [Compound 59, 3-{2-Fluoro-4-methyl-5-[(2,2,2-trifluoroethyl)sulphinyl]phenyl}-6-(pyridin-3-yl)[1,3]thiazolo[4,5-d][1,2,3]triazin-4(3H)-one]",pest or weed control at 500 g/ha,Myzus persicae; application rate 500 g/ha,90%
same,chromatographic logP,[1]; [2],2.4
same,chromatographic logP,[1]; [3],2.35
O=c1c2sc(-c3cccnc3)nc2ncn1CC(F)F [Compound 4],efficacy (aphids killed),Myzus persicae; application rate 500 g/ha,100%
same,logP[a],[1]; [4],1.19
O=c1c2sc(-c3cccnc3)nc2ncn1C1CC1 [Compound 2],efficacy (aphids killed),Myzus persicae; application rate 500 g/ha,100%
same,logP[b],[1]; [5],1.05
O=c1c2sc(-c3cccnc3)nc2ncn1-c1cccc(C(F)(F)F)c1 [Compound 9],efficacy (aphids killed),Myzus persicae; application rate 500 g/ha,100%
same,logP[a],[1]; [4],2.26
same,logP[b],[1]; [5],2.23
"Cc1cc(F)c(-n2cnc3nc(-c4cncc(F)c4)sc3c2=O)cc1SCC(F)(F)F [Compound 73, 6-{2-Fluoro-4-methyl-5-[(2,2,2-trifluoroethyl)sulphanyl]phenyl}-2-(5-fluoropyridin-3-yl)[1,3]thiazolo[4,5-d]pyrimidin-7(6H)-one]",pest or weed control at 500 g/ha,Myzus persicae; application rate 500 g/ha,90%
same,chromatographic logP,[1]; [2],3.36
same,chromatographic logP,[1]; [3],3.25
O=c1c2sc(-c3cccnc3)nc2ncn1-c1ccccc1F [Compound 40],efficacy (aphids killed),Myzus persicae; application rate 500 g/ha,100%
same,logP[a],[1]; [4],1.70
same,logP[b],[1]; [5],1.69
"Cc1cc(C)c([S+]([O-])CC(F)(F)F)cc1-n1cnc2nc(-c3cncnc3)sc2c1=O (stereo not shown) [Compound 77, 6-{2,4-Dimethyl-5-[(2,2,2-trifluoroethyl)sulphinyl]phenyl}-2-(pyrimidin-5-yl)[1,3]thiazolo[4,5-d]pyrimidin-7(6H)-one]",pest or weed control at 500 g/ha,Myzus persicae; application rate 500 g/ha,100%
same,chromatographic logP,[1]; [2],1.84
same,chromatographic logP,[1]; [3],1.82
CC[S+]([O-])c1cccc(-n2cnc3nc(-c4cccnc4)sc3c2=O)c1 (stereo not shown) [Compound 20],efficacy (aphids killed),Myzus persicae; application rate 500 g/ha,100%
same,logP[a],[1]; [4],1.24
same,logP[b],[1]; [5],1.26
C[S+]([O-])c1cccc(-n2cnc3nc(-c4cccnc4)sc3c2=O)c1 (stereo not shown) [Compound 14],efficacy (aphids killed),Myzus persicae; application rate 500 g/ha,90%
same,logP[a],[1]; [4],1.04
same,logP[b],[1]; [5],1.09
O=c1c2sc(-c3cccnc3)nc2ncn1-c1ccc(F)c([S+]([O-])C(F)(F)F)c1 (stereo not shown) [Compound 18],efficacy (aphids killed),Myzus persicae; application rate 500 g/ha,90%
same,logP[a],[1]; [4],2.01
same,logP[b],[1]; [5],1.95
O=c1c2sc(-c3cccnc3)nc2ncn1CC(F)(F)C(F)F [Compound 6],efficacy (aphids killed),Myzus persicae; application rate 500 g/ha,90%
same,logP[a],[1]; [4],1.57
CCSc1cccc(-n2cnc3nc(-c4cccnc4)sc3c2=O)c1 [Compound 19],efficacy (aphids killed),Myzus persicae; application rate 100 g/ha,90%
same,logP[a],[1]; [4],2.39
same,logP[b],[1]; [5],2.43
Cc1cc(C)c(-n2cnc3nc(-c4cncc(F)c4)sc3c2=O)cc1SCC(F)(F)F [Compound 71],efficacy (aphids killed),Myzus persicae; application rate 500 g/ha,90%
same,logP[a],[1]; [4],3.64
same,logP[b],[1]; [5],3.34
CSc1cc(-n2cnc3nc(-c4cccnc4)sc3c2=O)ccc1C [Compound 15],efficacy (aphids killed),Myzus persicae; application rate 500 g/ha,100%
same,logP[a],[1]; [4],2.42
same,logP[b],[1]; [5],2.35
O=c1c2sc(-c3cccnc3)nc2ncn1Cc1cccnc1 [Compound 35],efficacy (aphids killed),Myzus persicae; application rate 500 g/ha,100%
same,logP[b],[1]; [5],0.72
"Cc1cc(F)c(-n2cnc3nc(-c4cncc(F)c4)sc3c2=O)cc1[S+]([O-])CC(F)(F)F (stereo not shown) [Compound 74, 6-{2-Fluoro-4-methyl-5-[(2,2,2-trifluoroethyl)sulphinyl]phenyl}-2-(5-fluoropyridin-3-yl)[1,3]thiazolo[4,5-d]pyrimidin-7(6H)-one]",pest or weed control at 500 g/ha,Myzus persicae; application rate 500 g/ha,90%
same,chromatographic logP,[1]; [2],2.34
same,chromatographic logP,[1]; [3],2.26
"Cc1cc(F)c(-n2c(C)nc3nc(-c4cccnc4)sc3c2=O)cc1SCC(F)(F)F [Compound 56, 6-{2-Fluoro-4-methyl-5-[(2,2,2-trifluoroethyl)sulphanyl]phenyl}-5-methyl-2-(pyridin-3-yl)[1,3]thiazolo[4,5-d]pyrimidin-7(6H)-one]",pest or weed control at 500 g/ha,Myzus persicae; application rate 500 g/ha,90%
same,chromatographic logP,[1]; [2],3.25
same,chromatographic logP,[1]; [3],3
"Cc1cc(F)c(-n2cnc3nc(-c4cccnc4)sc3c2=O)cc1[S+]([O-])CC(F)(F)F (stereo not shown) [Compound 22, 6-{2-Fluoro-4-methyl-5-[(2,2,2-trifluoroethyl)sulphinyl]phenyl}-2-(pyridin-3-yl)[1,3]thiazolo[4,5-d]pyrimidin-7(6H)-one]",pest or weed control at 500 g/ha,Myzus persicae; application rate 500 g/ha,90%
same,chromatographic logP,[1]; [2],2.01
same,chromatographic logP,[1]; [3],1.98
CSc1cccc(-n2cnc3nc(-c4cccnc4)sc3c2=O)c1 [Compound 13],efficacy (aphids killed),Myzus persicae; application rate 500 g/ha,90%
same,logP[a],[1]; [4],2.09
same,logP[b],[1]; [5],2.08
COc1ccc(-n2cnc3nc(-c4cccnc4)sc3c2=O)cc1 [Compound 12],efficacy (aphids killed),Myzus persicae; application rate 500 g/ha,90%
same,logP[a],[1]; [4],1.73
same,logP[b],[1]; [5],1.76
Cc1cccc(-n2cnc3nc(-c4cccnc4)sc3c2=O)c1 [Compound 8],efficacy (aphids killed),Myzus persicae; application rate 500 g/ha,90%
same,logP[a],[1]; [4],1.94
same,logP[b],[1]; [5],1.94
Cc1cc(C)c([S+]([O-])CC(F)(F)F)cc1-n1cnc2nc(-c3cncc(F)c3)sc2c1=O (stereo not shown) [Compound 72],efficacy (aphids killed),Myzus persicae; application rate 500 g/ha,90%
same,logP[a],[1]; [4],2.35
same,logP[b],[1]; [5],2.29
CC(C)C[S+]([O-])c1cccc(-n2cnc3nc(-c4cccnc4)sc3c2=O)c1 (stereo not shown) [Compound 27],efficacy (aphids killed),Myzus persicae; application rate 500 g/ha,90%
same,logP[a],[1]; [4],1.73
same,logP[b],[1]; [5],1.68
"Cc1cc(C)c([S+]([O-])CC(F)(F)F)cc1-n1cnc2nc(-c3cccnc3)sc2c1=O (stereo not shown) [Compound 50, 6-{2,4-Dimethyl-5-[(2,2,2-trifluoroethyl)sulphinyl]phenyl}-2-(pyridin-3-yl)[1,3]thiazolo[4,5-d]pyrimidin-7(6H)-one]",pest or weed control at 500 g/ha,Myzus persicae; application rate 500 g/ha,100%
same,chromatographic logP,[1]; [2],2.06
same,chromatographic logP,[1]; [3],2.01
CCSc1ccccc1-n1cnc2nc(-c3cccnc3)sc2c1=O [Compound 66],efficacy (aphids killed),Myzus persicae; application rate 500 g/ha,100%
same,logP[a],[1]; [4],2.20
same,logP[b],[1]; [5],2.21
Cc1ccc(-n2cnc3nc(-c4cccnc4)sc3c2=O)cc1[S+](C)[O-] (stereo not shown) [Compound 16],efficacy (aphids killed),Myzus persicae; application rate 500 g/ha,90%
same,logP[a],[1]; [4],1.25
same,logP[b],[1]; [5],1.26
CC(c1ncnn1C)n1cnc2nc(-c3cccnc3)sc2c1=O (stereo not shown) [Compound 86],efficacy (aphids killed),Myzus persicae; application rate 500 g/ha,90%
same,logP[a],[1]; [4],1.01
same,logP[b],[1]; [5],1.07
CN(C)C(=O)Cn1cnc2nc(-c3cccnc3)sc2c1=O [Compound 7],efficacy (aphids killed),Myzus persicae; application rate 500 g/ha,100%
same,logP[a],[1]; [4],0.65
Cc1cc(F)c(-n2cnc3nc(-c4cncnc4)sc3c2=O)cc1SCC(F)(F)F [Compound 78],efficacy (aphids killed),Myzus persicae; application rate 500 g/ha,90%
same,logP[a],[1]; [4],2.73
same,logP[b],[1]; [5],2.65
"O=c1c2sc(-c3cccnc3)nc2ncn1CC1CC1 [Compound 39, 6-(Cyclopropylmethyl)-2-(pyridin-3-yl)[1,3]thiazolo[4,5-d]pyrimidin-7(6H)-one]",pest or weed control at 500 g/ha,Myzus persicae; application rate 500 g/ha,100%
same,chromatographic logP,[1]; [2],1.53
same,chromatographic logP,[1]; [3],1.52
CC(C)[S+]([O-])c1cccc(-n2cnc3nc(-c4cccnc4)sc3c2=O)c1 (stereo not shown) [Compound 25],efficacy (aphids killed),Myzus persicae; application rate 500 g/ha,90%
same,logP[a],[1]; [4],1.39
same,logP[b],[1]; [5],1.43
Cc1ccc(-n2cnc3nc(-c4cccnc4)sc3c2=O)cc1SCC(F)(F)F [Compound 47],efficacy (aphids killed),Myzus persicae; application rate 500 g/ha,90%
same,logP[a],[1]; [4],2.73
same,logP[b],[1]; [5],2.75
O=c1c2sc(-c3cccnc3)nc2ncn1-c1cc([S+]([O-])CC2CC2)ccc1F (stereo not shown) [Compound 45],efficacy (aphids killed),Myzus persicae; application rate 500 g/ha,100%
same,logP[a],[1]; [4],1.63
same,logP[b],[1]; [5],1.66
CC(C)CSc1cccc(-n2cnc3nc(-c4cccnc4)sc3c2=O)c1 [Compound 26],efficacy (aphids killed),Myzus persicae; application rate 500 g/ha,90%
same,logP[a],[1]; [4],3.18
same,logP[b],[1]; [5],3.08
O=c1c2sc(-c3cccnc3)nc2ncn1-c1ccc(Cl)cc1 [Compound 43],efficacy (aphids killed),Myzus persicae; application rate 500 g/ha,100%
same,logP[a],[1]; [4],2.05
same,logP[b],[1]; [5],2.06
"Cc1cc(F)c(-n2cnc3nc(-c4cccnc4)sc3c2=O)cc1[S+]([O-])CC(=O)N(C)C (stereo not shown) [Compound 55, 2-({4-Fluoro-2-methyl-5-[7-oxo-2-(pyridin-3-yl)[1,3]thiazolo[4,5-d]pyrimidin-6(7H)-yl]phenyl}sulphinyl)-N,N-dimethylacetamide]",pest or weed control at 500 g/ha,Myzus persicae; application rate 500 g/ha,90%
same,chromatographic logP,[1]; [2],1.38
same,chromatographic logP,[1]; [3],1.38
